# Results as given in US11951109B2, “EZH2 inhibitors for treating lymphoma” (Epizyme, Inc., priority 2015, dated 2024).
# How the values were obtained:
# [1] = tested on: DOHH2; experiment: Combination of EPZ-6438 and other therapeutic agents (4+3 model), DOHH2; format: cell-based; settings: for combination effect with EPZ-6438, DOHH2: WT EZH2 GCB; for combination effect with EPZ-6438, DOHH2 (WT EZH2 GC): Table 3
# [2] = tested on: Toledo; settings: Table 3; 4+3 model
# [3] = tested on: TMD8; experiment: Combination of EPZ-6438 and other therapeutic agents (4+3 model), TMD8; settings: WT EXH2 ABC
# [4] = tested on: RC-K8; experiment: Combination of EPZ-6438 and other therapeutic agents (4+3 model), RC-K8; settings: WT EXH2 ABC
# [5] = tested on: SUDHL5; experiment: Combination of EPZ-6438 and other therapeutic agents (4+3 model), SUDHL5; settings: for combination effect with EPZ-6438, SUDHL5: WT EZH2 GCB
# [6] = tested on: Farage; experiment: Combination of EPZ-6438 and other therapeutic agents (4+3 model), Farage; settings: WT EZH2 GCB
# [7] = tested on: SUDHL2; experiment: Combination of EPZ-6438 and other therapeutic agents (4+3 model), SUDHL2; settings: WT EXH2 ABC
# [8] = tested on: OCI-LY7; experiment: Combination of EPZ-6438 and other therapeutic agents (4+3 model), OCI-LY7; settings: WT EZH2 GCB
# [9] = tested on: OCI-LY3; experiment: Combination of EPZ-6438 and other therapeutic agents (4+3 model), OCI-LY3; settings: WT EXH2 ABC
# [10] = tested on: SU-DHL-6; experiment: Combination of EPZ-6438 and other therapeutic agents (4+3 model), SU-DHL-6; settings: for combination effect with EPZ-6438, SU-DHL-6: Mutant EZH2 GCB; for combination effect with EPZ-6438, SU-DHL-6 (mutant EZH2 GC): Table 3
# [11] = tested on: OCI-LY19; experiment: Combination of EPZ-6438 and other therapeutic agents (4+3 model), OCI-LY19; settings: for combination effect with EPZ-6438, OCI-LY19: WT EZH2 GCB
# [12] = tested on: WSU-DLCL2; experiment: Combination of EPZ-6438 and other therapeutic agents (4+3 model), WSU-DLCL2; settings: for combination effect with EPZ-6438, WSU-DLCL2: Mutant EZH2 GCB, EPZ-6438 4 days then co-treatment 3 days (4+3 model); for combination effect with EPZ-6438, WSU-DLCL2 (mutant EZH2 GC): Table 3, 4+3 model
# [13] = tested on: SU-DHL-10; experiment: Combination of EPZ-6438 and other therapeutic agents (4+3 model), SU-DHL-10; settings: for combination effect with EPZ-6438, SU-DHL-10: Mutant EZH2 GCB; for combination effect with EPZ-6438, SU-DHL-10 (mutant EZH2 GC): Table 3
# [14] = tested on: KARPAS-422; experiment: Combination of EPZ-6438 and other therapeutic agents (4+3 model), KARPAS-422; settings: Mutant EZH2 GCB
# [15] = tested on: Non-Hodgkin's lymphoma; experiment: Phase 1 clinical study of EPZ-6438: tumor response; format: in vivo, human
# From the text: (§1) The phase 1 trial enrolled patients with relapsed/refractory solid tumors and B cell lymphoma. The study employed a standard 3+3 dose escalation design with two planned dose expansion cohorts and clinical pharmacology sub-studies. The primary endpoint was determination of a recommended phase 2 dose or MTD with standard secondary endpoints. The results of the study are also presented in WO 2015195848 and figures therein, the content of which is hereby incorporated by reference in its entirety.
# The patients enrolled included 19 patients with Non-Hodgkin's lymphoma (NHL) of which 13 patients have DLBCL. Cell-of origin testing was intended for all NHL patients; however, 3 DLBCL patients had insufficient tissue to permit determination of germinal center vs. non-germinal center status. EZH2 mutation testing was centrally performed for 14 NHL patients by the Cobas® test (Roche). One lymphoma patient whose tumor has been treated to date carries an EZH2 mutation. For the solid tumor patients, attention has been given to recruiting patients with INI1-deficient tumors due to the oncogenic role of EZH2 in these tumors.
# NHL patients on study were heavily pre-treated with 85% having received three or more prior systemic therapies and nearly half receiving four or more prior regimens.
# [16] = clinical; settings: human, in vivo
# From the text: as §1
# […]. […] While a decrease in AUC between the first dose and day 15 was observed, there was no further reduction in systemic exposure beyond that time, as evidenced by pre-dose Ctrough levels in the right panel.
# [17] = tested on: H3K27 trimethylation; experiment: Phase 1 clinical study: tri-methyl H3K27 levels in skin biopsy by immunohistochemistry; format: in vivo, human; settings: for reduction from baseline in PD H3K27 trimethylation in skin biopsy: wild type EZH2
# From the text: Pre- and post-dose skin biopsies were collected to assess pharmacodynamics in a surrogate tissue through the measurement of tri-methyl H3K27 levels by immunohistochemistry.
# [18] = human, in vivo
# From the text: as §1
# […]. One patient discontinued drug for grade 4 neutropenia. Both of these patients were treated in the 800 mg expansion cohort. • Seven patients had dose interruptions. Of these, 6 were from a reversible toxicity and resumed study agent at prior dose without further issue.
# [19] = tested on: KARPAS 422 tumor; experiment: Single agent activity of EPZ-6438 in KARPAS 422 tumor (FIG. 2A); format: in vivo; settings: mutant EZH2 (Y646N)
# [20] = tested on: WSU-DLCL2 tumor; experiment: EPZ-6438 with CHOP chemotherapy in vivo, WSU-DLCL2 tumor (FIG. 3A)
# [21] = tested on: SUDHL6 tumor; experiment: EPZ-6438 with CHOP chemotherapy in vivo, SUDHL6 tumor (FIG. 3B, 3C)
# [22] = tested on: HT; experiment: Combination of EPZ-6438 and other therapeutic agents (4+3 model), HT; settings: WT EZH2 GCB
# [23] = patient with primary mediastinal B-cell lymphoma, wild type EZH2, 200 mg orally twice a day
smiles,measurement,setting,value
C[C@@H]1C[C@H]2[C@@H]3CCC4=CC(=O)C=C[C@]4(C)[C@@]3(F)[C@@H](O)C[C@]2(C)[C@@]1(O)C(=O)CO [Dexamethasone],"combination effect with EPZ-6438, DOHH2",[1],S
same,"combination effect with EPZ-6438, Toledo (WT EZH2 ABC)",[2],No effect
same,"combination effect with EPZ-6438, TMD8",[3],S
same,"combination effect with EPZ-6438, RC-K8",[4],S
same,"combination effect with EPZ-6438, SUDHL5",[5],S
same,"combination effect with EPZ-6438, Farage",[6],S
same,"combination effect with EPZ-6438, SUDHL2",[7],S
same,"combination effect with EPZ-6438, OCI-LY7",[8],S
same,"combination effect with EPZ-6438, OCI-LY3",[9],S
same,"combination effect with EPZ-6438, SU-DHL-6",[10],S
same,"combination effect with EPZ-6438, OCI-LY19",[11]; 4+3 model,S
same,"combination effect with EPZ-6438, WSU-DLCL2",[12],S
same,"combination effect with EPZ-6438, SU-DHL-10",[13],S
same,"combination effect with EPZ-6438, KARPAS-422",[14],S
COc1cccc2c1C(=O)c1c(O)c3c(c(O)c1C2=O)C[C@@](O)(C(=O)CO)C[C@@H]3O[C@H]1C[C@H](N)[C@H](O)[C@H](C)O1 [Doxorubicin],"combination effect with EPZ-6438, DOHH2 (WT EZH2 GC)",[1],No effect
same,"combination effect with EPZ-6438, Toledo (WT EZH2 ABC)",[2],No effect
same,"combination effect with EPZ-6438, SU-DHL-6 (mutant EZH2 GC)",[10],Additive
same,"combination effect with EPZ-6438, WSU-DLCL2 (mutant EZH2 GC)",[12],Synergy
same,"combination effect with EPZ-6438, SU-DHL-10 (mutant EZH2 GC)",[13],Additive
"CCN(c1cc(-c2ccc(CN3CCOCC3)cc2)cc(C(=O)NCc2c(C)cc(C)[nH]c2=O)c1C)C1CCOCC1 [EPZ-6438, tazemetostat]",objective response,[15]; DLBCL,5 of 9
same,reduction of abdominal mass,"[15]; DLBCL patient with EZH2 mutation, by week 16",52%
same,objective response,[15]; evaluable NHL patients,Nine of 15
same,objective response,[15]; follicular lymphoma,3 of 5
same,response,"[15]; one patient with marginal zone nodular lymphoma, approaching one year on therapy",partial response
same,FDG uptake,[15]; [23],reduction
same,reduction in lesion size via computed tomography (CT),[15]; [23],73%
same,reduction in lesion size via computed tomography (CT),"[15]; patient with transformed DLBCL, wild type EZH2, 100 mg orally twice a day",66%
same,PK at steady state throughout the entire dosing range,[16],dose-proportional linear PK
same,absorption,[16],rapid absorption
same,half-life,[16],3 to 5 h
same,reduction from baseline in PD H3K27 trimethylation in skin biopsy,"[17]; patient with primary mediastinal B-cell lymphoma, 200 mg orally twice a day",27%
same,reduction from baseline in PD H3K27 trimethylation in skin biopsy,"[17]; patient with transformed DLBCL, 100 mg orally twice a day",21%
same,tri-methyl H3K27 levels across the full thickness of skin,[17]; pre- and post-dose skin biopsies,dose-dependent reduction
same,"Grade 3 or greater adverse events, fraction of patients",[18],a third
same,Grade 3 or greater treatment-related adverse events,[18],5 patients
same,tolerability,[18],well-tolerated
same,"tumor growth, single agent",[19],growth inhibition
same,effect of combination with CHOP chemotherapy on mean tumor volume,[20],synergy
same,effect of combination with CHOP chemotherapy on mean tumor volume and survival,[21],synergy
same,activity of EPZ-6438 in combination with prednisolone,"[11]; OCI-LY19, FIG. 1B",possesses activity
CO[C@H]1C[C@@H]2CC[C@@H](C)[C@@](O)(O2)C(=O)C(=O)N2CCCC[C@H]2C(=O)O[C@H]([C@H](C)C[C@@H]2CC[C@@H](OCCO)[C@H](OC)C2)CC(=O)[C@H](C)/C=C(\C)[C@@H](O)[C@@H](OC)C(=O)[C@H](C)C[C@H](C)/C=C/C=C/C=C/1C [Everolimus],"combination effect with EPZ-6438, HT",[22],S
same,"combination effect with EPZ-6438, TMD8",[3],S
same,"combination effect with EPZ-6438, RC-K8",[4],S
same,"combination effect with EPZ-6438, SUDHL5",[5],S
same,"combination effect with EPZ-6438, Farage",[6],S
same,"combination effect with EPZ-6438, SUDHL2",[7],S
same,"combination effect with EPZ-6438, OCI-LY7",[8],S
same,"combination effect with EPZ-6438, OCI-LY3",[9],S
same,"combination effect with EPZ-6438, SU-DHL-6",[10],S
same,"combination effect with EPZ-6438, WSU-DLCL2",[12],S
same,"combination effect with EPZ-6438, SU-DHL-10",[13],S
same,"combination effect with EPZ-6438, KARPAS-422",[14],ADD.
C=CC(=O)N1CCC[C@@H](n2nc(-c3ccc(Oc4ccccc4)cc3)c3c(N)ncnc32)C1 [Ibrutinib],"combination effect with EPZ-6438, HT",[22],S
same,"combination effect with EPZ-6438, TMD8",[3],S
same,"combination effect with EPZ-6438, RC-K8",[4],ADD.
same,"combination effect with EPZ-6438, SUDHL5",[5],S
same,"combination effect with EPZ-6438, Farage",[6],S
same,"combination effect with EPZ-6438, SUDHL2",[7],ADD.
same,"combination effect with EPZ-6438, OCI-LY7",[8],S
same,"combination effect with EPZ-6438, OCI-LY3",[9],ADD.
same,"combination effect with EPZ-6438, SU-DHL-6",[10],S
same,"combination effect with EPZ-6438, WSU-DLCL2",[12],S
same,"combination effect with EPZ-6438, SU-DHL-10",[13],S
same,"combination effect with EPZ-6438, KARPAS-422",[14],S
C[C@]12C=CC(=O)C=C1CC[C@@H]1[C@@H]2[C@@H](O)C[C@@]2(C)[C@H]1CC[C@]2(O)C(=O)CO [Prednisolone],"combination effect with EPZ-6438, DOHH2 (WT EZH2 GC)",[1],Synergy
same,"combination effect with EPZ-6438, DOHH2",[1],S
same,"combination effect with EPZ-6438, Toledo (WT EZH2 ABC)",[2],No effect
same,"combination effect with EPZ-6438, TMD8",[3],S
same,"combination effect with EPZ-6438, RC-K8",[4],S
same,"combination effect with EPZ-6438, SU-DHL-5 (WT EZH2 GC)",[5]; Table 3,Synergy
same,"combination effect with EPZ-6438, SUDHL5",[5],S
same,"combination effect with EPZ-6438, Farage",[6],S
same,"combination effect with EPZ-6438, SUDHL2",[7],S
same,"combination effect with EPZ-6438, OCI-LY7",[8],S
same,"combination effect with EPZ-6438, OCI-LY3",[9],S
same,"combination effect with EPZ-6438, SU-DHL-6",[10],S
same,"combination effect with EPZ-6438, SU-DHL-6 (mutant EZH2 GC)",[10],Synergy
same,"combination effect with EPZ-6438, OCI-LY-19 (WT EZH2 GC)","[11]; Table 3, 4+3 model",Synergy
same,"combination effect with EPZ-6438, OCI-LY19",[11]; 4+3 model,S
same,"combination effect with EPZ-6438, WSU-DLCL2",[12],S
same,"combination effect with EPZ-6438, WSU-DLCL2 (mutant EZH2 GC)",[12],Synergy
same,"combination effect with EPZ-6438, SU-DHL-10",[13],S
same,"combination effect with EPZ-6438, SU-DHL-10 (mutant EZH2 GC)",[13],Synergy
same,"combination effect with EPZ-6438, KARPAS-422",[14],S
CC[C@]1(O)C[C@H]2CN(CCc3c([nH]c4ccccc34)[C@@](C(=O)OC)(c3cc4c(cc3OC)N(C=O)[C@H]3[C@@](O)(C(=O)OC)[C@H](OC(C)=O)[C@]5(CC)C=CCN6CC[C@]43[C@@H]65)C2)C1 [Vincristine],"combination effect with EPZ-6438, DOHH2 (WT EZH2 GC)",[1],No effect
same,"combination effect with EPZ-6438, Toledo (WT EZH2 ABC)",[2],No effect
same,"combination effect with EPZ-6438, SU-DHL-6 (mutant EZH2 GC)",[10],Additive
same,"combination effect with EPZ-6438, WSU-DLCL2 (mutant EZH2 GC)",[12],Additive
same,"combination effect with EPZ-6438, SU-DHL-10 (mutant EZH2 GC)",[13],Additive
